Reference: US20080009418A1, “Selective Inhibitors” (Alchemia LTD., priority 2004, published 2008)

Assays:
Human μ-opioid (MOP) = molecular target: T1, Human μ-opioid (MOP) (Homo sapiens, UniProt P35372); experiment: Radioligand binding, human μ-opioid (MOP) membranes, FlashPlate, [3H]-Naloxone; conditions: compound at 10 μM; human μ-opioid (MOP) membranes
T1 construct: purchased Perkin Elmer Biosignal
In short: (§1)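 Cloned human receptor membranes were coated onto FlashPlate wells and incubated with radioligand and compound (added from a 0.5 mM DMSO daughter plate) for 1 hour at room temperature in the dark. Scintillation counting gave percent inhibition, with DMSO defining total and reference ligand defining non-specific binding.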

Human opioid (ORL1) = molecular target: T2, Human opioid (ORL1) (Homo sapiens, UniProt P41146); experiment: Radioligand binding, human opioid ORL1 membranes, FlashPlate, [125I]-Nociceptin; conditions: compound at 10 μM; human ORL1 membranes
T2 construct: purchased Perkin Elmer Biosignal
In short: as §1

Mouse urotensin (mUR2) = molecular target: T3, Mouse urotensin (mUR2) (Mus musculus, UniProt Q8VIH9); experiment: Radioligand binding, mouse urotensin mUR2 membranes, FlashPlate, [125I]-Urotensin II; conditions: compound at 10 μM; mouse urotensin mUR2 membranes
T3 construct: purchased Perkin Elmer Biosignal
T3 sequence (Q8VIH9 1-385): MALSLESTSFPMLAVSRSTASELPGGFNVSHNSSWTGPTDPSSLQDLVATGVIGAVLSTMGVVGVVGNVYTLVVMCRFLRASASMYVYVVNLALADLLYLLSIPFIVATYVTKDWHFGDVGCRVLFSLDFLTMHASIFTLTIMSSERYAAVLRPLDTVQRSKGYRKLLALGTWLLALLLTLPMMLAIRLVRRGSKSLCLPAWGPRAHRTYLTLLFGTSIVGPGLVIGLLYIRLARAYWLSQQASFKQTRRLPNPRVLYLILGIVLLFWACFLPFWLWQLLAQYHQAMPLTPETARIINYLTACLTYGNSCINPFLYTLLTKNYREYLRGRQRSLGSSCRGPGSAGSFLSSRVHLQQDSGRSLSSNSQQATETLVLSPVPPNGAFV
In short: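 Cloned mouse urotensin (mUR2) receptor membranes from Perkin Elmer Biosignal were immobilized in FlashPlate microplates using a proprietary coating. Each well got 19.5 μl buffer, then 0.5 μl of DMSO, reference ligand, or compound. Adding 5 μl of [125I]-Urotensin II, diluted to 5× final concentration in binding buffer, started binding. Plates were sealed with TopSeal-A and incubated 1 hour at room temperature in the dark. Wells were counted for 30 seconds each on a TopCount after a 60-second delay, and percentage inhibition was calculated.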

Human Melanocortin (MC3) = molecular target: T4, Human Melanocortin (MC3) (Homo sapiens, UniProt P41968); experiment: Radioligand binding, human melanocortin MC3 membranes, FlashPlate, [125I]-NDP-αMSH; conditions: compound at 10 μM; human melanocortin MC3 membranes
T4 construct: purchased Perkin Elmer Biosignal
In short: as §1

Human κ-Opioid (KOP) = molecular target: T5, Human κ-Opioid (KOP) (Homo sapiens, UniProt P41145); experiment: Radioligand binding, human κ-opioid (KOP) membranes, filtration, [3H]-Diprenorphine; conditions: compound at 10 μM; human κ-opioid (KOP) membranes
T5 construct: purchased Perkin Elmer Biosignal
In short: (§2)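 Filtration binding on cloned human receptor membranes (1 Unit/well), [125I]-Substance P for NK1 and [3H]-Diprenorphine for KOP, 1 h at room temperature. Filters PEI-presoaked, washed with cold 50 mM Tris-HCl pH 7.4, counted by scintillation; percent inhibition calculated, reference ligand defining non-specific binding.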

[1] = molecular target: T6, Human melanin-concentrating hormone (MCH1) (Homo sapiens, UniProt Q99705); experiment: Radioligand binding, human melanin-concentrating hormone MCH1 membranes, FlashPlate, [125I]-S36057; conditions: compound at 10 μM; human MCH1 membranes
T6 construct: purchased Perkin Elmer Biosignal
In short: as §1

Human δ-opioid (DOP) = molecular target: T7, Human δ-opioid (DOP) (Homo sapiens, UniProt P41143); experiment: Radioligand binding, human δ-opioid (DOP) membranes, FlashPlate, [3H]-Bremazocine; conditions: compound at 10 μM; human δ-opioid (DOP) membranes
T7 construct: purchased Perkin Elmer Biosignal
In short: as §1

[2] = molecular target: T8, Human neuropeptide Y (NPY-Y1) (Homo sapiens, UniProt P25929); experiment: Radioligand binding, human neuropeptide Y NPY-Y1 membranes, FlashPlate, [125I]-PYY; conditions: compound at 10 μM; human NPY-Y1 membranes
T8 construct: purchased Perkin Elmer Biosignal
T8 sequence (P25929 1-384): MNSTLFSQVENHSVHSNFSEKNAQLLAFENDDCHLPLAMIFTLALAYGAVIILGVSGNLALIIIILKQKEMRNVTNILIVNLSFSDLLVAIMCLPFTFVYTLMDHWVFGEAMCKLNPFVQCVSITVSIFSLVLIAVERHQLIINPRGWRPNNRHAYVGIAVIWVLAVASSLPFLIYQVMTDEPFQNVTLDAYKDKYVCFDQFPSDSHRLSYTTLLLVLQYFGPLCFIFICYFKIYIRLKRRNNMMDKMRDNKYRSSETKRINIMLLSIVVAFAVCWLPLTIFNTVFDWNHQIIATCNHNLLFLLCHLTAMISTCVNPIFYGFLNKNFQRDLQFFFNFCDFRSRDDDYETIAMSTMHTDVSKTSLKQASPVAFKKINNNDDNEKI
In short: as §1

Human neurokinin (NK1) = molecular target: T9, Human neurokinin (NK1) (Homo sapiens, UniProt P25103); experiment: Radioligand binding, human neurokinin NK1 membranes, filtration, [125I]-Substance P; conditions: compound at 10 μM; human neurokinin NK1 membranes
T9 construct: purchased Perkin Elmer Biosignal
In short: as §2

Human Melanocortin (MC4) = molecular target: T10, Human Melanocortin (MC4) (Homo sapiens, UniProt P32245); experiment: Radioligand binding, human melanocortin MC4 membranes, FlashPlate, [125I]-NDP-αMSH; conditions: compound at 10 μM; human melanocortin MC4 membranes
T10 construct: purchased Perkin Elmer Biosignal
In short: as §1

Human melanocortin (MC5) = molecular target: T11, Human melanocortin (MC5) (Homo sapiens, UniProt P33032); experiment: Radioligand binding, human melanocortin MC5 membranes, FlashPlate, [125I]-NDP-αMSH; conditions: compound at 10 μM; human melanocortin MC5 membranes
T11 construct: purchased Perkin Elmer Biosignal
In short: as §1

T4 sequence (P41968 whole entry): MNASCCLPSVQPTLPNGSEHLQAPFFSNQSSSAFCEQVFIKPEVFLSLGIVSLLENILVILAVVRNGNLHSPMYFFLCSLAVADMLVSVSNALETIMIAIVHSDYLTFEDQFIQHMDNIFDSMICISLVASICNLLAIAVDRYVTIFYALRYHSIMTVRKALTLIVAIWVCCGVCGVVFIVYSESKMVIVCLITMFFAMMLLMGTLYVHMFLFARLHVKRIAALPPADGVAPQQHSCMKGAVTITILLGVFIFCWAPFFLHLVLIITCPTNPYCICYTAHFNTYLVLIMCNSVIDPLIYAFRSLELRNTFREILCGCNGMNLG
T10 sequence (P32245 whole entry): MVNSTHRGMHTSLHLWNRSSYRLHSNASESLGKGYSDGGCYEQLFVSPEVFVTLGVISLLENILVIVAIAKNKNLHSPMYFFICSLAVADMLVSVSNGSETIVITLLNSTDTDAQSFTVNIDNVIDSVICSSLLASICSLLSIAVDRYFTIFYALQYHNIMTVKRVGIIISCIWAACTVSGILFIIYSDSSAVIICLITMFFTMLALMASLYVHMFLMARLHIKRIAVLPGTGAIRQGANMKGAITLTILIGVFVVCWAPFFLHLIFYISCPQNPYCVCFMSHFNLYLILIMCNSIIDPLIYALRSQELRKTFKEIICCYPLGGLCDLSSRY
T11 sequence (P33032 whole entry): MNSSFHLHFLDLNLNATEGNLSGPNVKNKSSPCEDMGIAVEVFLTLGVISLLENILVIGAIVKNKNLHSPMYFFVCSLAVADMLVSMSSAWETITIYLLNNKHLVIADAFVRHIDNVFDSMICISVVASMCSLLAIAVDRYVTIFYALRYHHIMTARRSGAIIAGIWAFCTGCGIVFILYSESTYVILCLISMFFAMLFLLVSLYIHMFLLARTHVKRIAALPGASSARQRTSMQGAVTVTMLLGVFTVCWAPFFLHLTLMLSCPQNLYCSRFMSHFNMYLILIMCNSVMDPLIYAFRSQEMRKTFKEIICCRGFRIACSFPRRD
T1 sequence (P35372 whole entry): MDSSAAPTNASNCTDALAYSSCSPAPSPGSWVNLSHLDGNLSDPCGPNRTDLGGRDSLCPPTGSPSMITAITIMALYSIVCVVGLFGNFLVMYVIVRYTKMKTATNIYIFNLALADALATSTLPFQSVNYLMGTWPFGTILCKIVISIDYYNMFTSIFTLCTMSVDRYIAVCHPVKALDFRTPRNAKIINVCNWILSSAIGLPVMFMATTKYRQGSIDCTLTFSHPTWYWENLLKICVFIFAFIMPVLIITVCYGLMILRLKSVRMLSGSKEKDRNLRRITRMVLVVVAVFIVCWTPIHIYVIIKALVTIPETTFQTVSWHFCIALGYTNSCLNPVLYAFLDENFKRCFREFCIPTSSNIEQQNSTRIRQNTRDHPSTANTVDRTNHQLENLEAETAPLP
T2 sequence (P41146 whole entry): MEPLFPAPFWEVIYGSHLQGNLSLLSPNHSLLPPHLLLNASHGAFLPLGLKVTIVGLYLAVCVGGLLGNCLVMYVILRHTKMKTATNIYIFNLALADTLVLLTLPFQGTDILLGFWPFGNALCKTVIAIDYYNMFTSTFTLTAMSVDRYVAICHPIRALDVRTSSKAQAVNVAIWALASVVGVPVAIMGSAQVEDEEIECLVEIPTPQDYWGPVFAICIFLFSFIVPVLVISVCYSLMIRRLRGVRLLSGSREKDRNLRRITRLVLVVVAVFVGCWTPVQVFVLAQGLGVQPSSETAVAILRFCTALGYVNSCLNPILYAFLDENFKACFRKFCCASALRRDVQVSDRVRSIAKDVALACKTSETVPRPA
T5 sequence (P41145 whole entry): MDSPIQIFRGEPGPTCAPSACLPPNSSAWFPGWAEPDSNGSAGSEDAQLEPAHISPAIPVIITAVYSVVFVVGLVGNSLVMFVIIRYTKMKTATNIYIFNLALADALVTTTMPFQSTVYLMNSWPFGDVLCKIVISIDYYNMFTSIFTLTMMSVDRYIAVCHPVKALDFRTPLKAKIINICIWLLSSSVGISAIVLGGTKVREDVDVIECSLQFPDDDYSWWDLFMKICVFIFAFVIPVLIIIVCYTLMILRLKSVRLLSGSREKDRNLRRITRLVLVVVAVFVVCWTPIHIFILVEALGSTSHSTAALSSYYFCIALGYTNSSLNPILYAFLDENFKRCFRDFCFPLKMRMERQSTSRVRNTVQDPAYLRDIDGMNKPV
T9 sequence (P25103 whole entry): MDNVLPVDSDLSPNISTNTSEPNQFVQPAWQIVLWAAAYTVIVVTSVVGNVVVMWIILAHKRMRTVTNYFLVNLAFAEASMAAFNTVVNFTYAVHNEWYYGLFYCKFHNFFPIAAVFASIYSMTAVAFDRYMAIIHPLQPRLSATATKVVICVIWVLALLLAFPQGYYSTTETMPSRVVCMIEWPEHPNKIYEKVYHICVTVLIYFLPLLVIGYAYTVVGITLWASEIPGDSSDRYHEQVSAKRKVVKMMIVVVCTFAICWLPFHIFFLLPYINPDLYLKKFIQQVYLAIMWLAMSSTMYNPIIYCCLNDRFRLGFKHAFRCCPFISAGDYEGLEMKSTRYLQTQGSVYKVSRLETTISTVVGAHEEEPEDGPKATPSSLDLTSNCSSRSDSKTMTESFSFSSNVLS
T7 sequence (P41143 whole entry): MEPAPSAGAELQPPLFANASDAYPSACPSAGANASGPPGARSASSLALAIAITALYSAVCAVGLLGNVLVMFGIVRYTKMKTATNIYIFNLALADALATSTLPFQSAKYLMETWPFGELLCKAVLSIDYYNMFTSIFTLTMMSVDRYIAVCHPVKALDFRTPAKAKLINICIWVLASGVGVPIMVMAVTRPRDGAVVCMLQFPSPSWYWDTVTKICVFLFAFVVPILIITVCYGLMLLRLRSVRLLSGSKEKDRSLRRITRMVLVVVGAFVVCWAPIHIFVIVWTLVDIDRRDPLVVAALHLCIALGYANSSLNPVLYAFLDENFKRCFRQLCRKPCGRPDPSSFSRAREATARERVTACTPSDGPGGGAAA
T6 sequence (Q99705 whole entry): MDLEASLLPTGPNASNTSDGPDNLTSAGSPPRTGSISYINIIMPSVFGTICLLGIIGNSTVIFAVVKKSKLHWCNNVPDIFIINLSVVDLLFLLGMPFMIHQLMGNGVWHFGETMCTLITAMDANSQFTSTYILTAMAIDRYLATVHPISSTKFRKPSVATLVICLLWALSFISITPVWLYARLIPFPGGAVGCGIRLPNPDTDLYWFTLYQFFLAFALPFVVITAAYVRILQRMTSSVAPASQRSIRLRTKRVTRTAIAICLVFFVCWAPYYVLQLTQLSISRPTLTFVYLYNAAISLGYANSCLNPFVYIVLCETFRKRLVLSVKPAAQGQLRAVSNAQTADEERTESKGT

Row | Structure (SMILES) | A7 radioligand binding inhibition (Human μ-opioid (MOP)) | A10 radioligand binding inhibition (Human opioid (ORL1)) | A11 radioligand binding inhibition (Mouse urotensin (mUR2)) | A3 radioligand binding inhibition (Human Melanocortin (MC3)) | A2 radioligand binding inhibition (Human κ-Opioid (KOP)) | A6 radioligand binding inhibition [1] | A1 radioligand binding inhibition (Human δ-opioid (DOP)) | A9 radioligand binding inhibition [2] | A8 radioligand binding inhibition (Human neurokinin (NK1)) | A4 radioligand binding inhibition (Human Melanocortin (MC4)) | A5 radioligand binding inhibition (Human melanocortin (MC5))
1 | COC[C@H]1OC(OCc2ccc3ccccc3c2)[C@H](NC(=O)CNC(=N)N)[C@@H](OCc2ccc(Cl)cc2)[C@@H]1O (stereo partly drawn) [compound 22] | − (“−” indicates less than 50% inhibition at 10 μM) | − (“−” indicates less than 50% inhibition at 10 μM) | − (“−” indicates less than 50% inhibition at 10 μM) | − (“−” indicates less than 50% inhibition at 10 μM) | − (“−” indicates less than 50% inhibition at 10 μM) | − (“−” indicates less than 50% inhibition at 10 μM) | − (“−” indicates less than 50% inhibition at 10 μM) | − (“−” indicates less than 50% inhibition at 10 μM) | − (“−” indicates less than 50% inhibition at 10 μM) | − (“−” indicates less than 50% inhibition at 10 μM) | + (“+” indicates greater than 50% inhibition at 10 μM)
2 | COC[C@H]1OC(OCc2ccccc2)[C@H](NC(=O)CNC(=N)N)[C@@H](OCc2ccc(-c3ccccc3)cc2)[C@@H]1O (stereo partly drawn) [compound 23] | − (“−” indicates less than 50% inhibition at 10 μM) | − (“−” indicates less than 50% inhibition at 10 μM) | − (“−” indicates less than 50% inhibition at 10 μM) | − (“−” indicates less than 50% inhibition at 10 μM) | − (“−” indicates less than 50% inhibition at 10 μM) | + (“+” indicates greater than 50% inhibition at 10 μM) | − (“−” indicates less than 50% inhibition at 10 μM) | − (“−” indicates less than 50% inhibition at 10 μM) | + (“+” indicates greater than 50% inhibition at 10 μM) | − (“−” indicates less than 50% inhibition at 10 μM) | + (“+” indicates greater than 50% inhibition at 10 μM)
3 | COC[C@H]1OC(OCc2ccccc2)[C@H](NC(=O)CCNC(=N)N)[C@@H](OCc2ccc(-c3ccccc3)cc2)[C@@H]1O (stereo partly drawn) [compound 24] | − (“−” indicates less than 50% inhibition at 10 μM) | − (“−” indicates less than 50% inhibition at 10 μM) | − (“−” indicates less than 50% inhibition at 10 μM) | − (“−” indicates less than 50% inhibition at 10 μM) | − (“−” indicates less than 50% inhibition at 10 μM) | + (“+” indicates greater than 50% inhibition at 10 μM) | − (“−” indicates less than 50% inhibition at 10 μM) | − (“−” indicates less than 50% inhibition at 10 μM) | + (“+” indicates greater than 50% inhibition at 10 μM) | − (“−” indicates less than 50% inhibition at 10 μM) | + (“+” indicates greater than 50% inhibition at 10 μM)
4 | COC[C@H]1OC(OCc2ccccc2)[C@H](NC(=O)CCCNC(=N)N)[C@@H](OCc2ccc(-c3ccccc3)cc2)[C@@H]1O (stereo partly drawn) [compound 25] | − (“−” indicates less than 50% inhibition at 10 μM) | − (“−” indicates less than 50% inhibition at 10 μM) | − (“−” indicates less than 50% inhibition at 10 μM) | − (“−” indicates less than 50% inhibition at 10 μM) | − (“−” indicates less than 50% inhibition at 10 μM) | + (“+” indicates greater than 50% inhibition at 10 μM) | − (“−” indicates less than 50% inhibition at 10 μM) | − (“−” indicates less than 50% inhibition at 10 μM) | + (“+” indicates greater than 50% inhibition at 10 μM) | + (“+” indicates greater than 50% inhibition at 10 μM) | + (“+” indicates greater than 50% inhibition at 10 μM)
5 | COC[C@H]1OC(OCc2ccccc2)[C@H](NC(=O)CCCN)[C@@H](OCc2ccc3ccccc3c2)[C@@H]1O (stereo partly drawn) [compound 26] | − (“−” indicates less than 50% inhibition at 10 μM) | − (“−” indicates less than 50% inhibition at 10 μM) | − (“−” indicates less than 50% inhibition at 10 μM) | − (“−” indicates less than 50% inhibition at 10 μM) | − (“−” indicates less than 50% inhibition at 10 μM) | − (“−” indicates less than 50% inhibition at 10 μM) | − (“−” indicates less than 50% inhibition at 10 μM) | − (“−” indicates less than 50% inhibition at 10 μM) | + (“+” indicates greater than 50% inhibition at 10 μM) | − (“−” indicates less than 50% inhibition at 10 μM) | − (“−” indicates less than 50% inhibition at 10 μM)
6 | COC[C@H]1OC(OCc2ccccc2)[C@H](NC(=O)CNC(=N)N)[C@@H](OCc2ccc(Cl)cc2)[C@@H]1O (stereo partly drawn) [compound 27] | − (“−” indicates less than 50% inhibition at 10 μM) | − (“−” indicates less than 50% inhibition at 10 μM) | − (“−” indicates less than 50% inhibition at 10 μM) | − (“−” indicates less than 50% inhibition at 10 μM) | − (“−” indicates less than 50% inhibition at 10 μM) | − (“−” indicates less than 50% inhibition at 10 μM) | − (“−” indicates less than 50% inhibition at 10 μM) | − (“−” indicates less than 50% inhibition at 10 μM) | − (“−” indicates less than 50% inhibition at 10 μM) | − (“−” indicates less than 50% inhibition at 10 μM) | + (“+” indicates greater than 50% inhibition at 10 μM)
